Test results reported in ChEMBL document CHEMBL4507294, “Data for DCP probe MSD-CYP11B2” (2021).

Columns and labels:
[1] = molecular target: Misshapen-like kinase 1 (Homo sapiens) (UniProt Q8N4C8); conditions: Compound concentration 1000.0 nM
[2] = molecular target: TRAF2 and NCK-interacting protein kinase (Homo sapiens) (UniProt Q9UKE5); conditions: Compound concentration 1000.0 nM
[3] = tested on: Tyrosine-protein kinase ABL1 (Homo sapiens), P00519 [F317L]; conditions: Compound concentration 1000.0 nM
[4] = molecular target: Serine/threonine-protein kinase MRCK alpha (Homo sapiens) (UniProt Q5VT25); conditions: Compound concentration 1000.0 nM
[5] = tested on: Proto-oncogene tyrosine-protein kinase receptor Ret (Homo sapiens), P07949 [M918T]; conditions: Compound concentration 1000.0 nM
[6] = molecular target: Phosphatidylinositol 4,5-bisphosphate 3-kinase catalytic subunit beta isoform (Homo sapiens) (UniProt P42338); conditions: Compound concentration 1000.0 nM
[7] = molecular target: Fibroblast growth factor receptor 4 (Homo sapiens) (UniProt P22455); conditions: Compound concentration 1000.0 nM
[8] = molecular target: Serine/threonine-protein kinase PAK 4 (Homo sapiens) (UniProt O96013); conditions: Compound concentration 1000.0 nM
[9] = tested on: Phosphatidylinositol 4,5-bisphosphate 3-kinase catalytic subunit alpha isoform (Homo sapiens), P42336 [H1047Y]; conditions: Compound concentration 1000.0 nM
[10] = molecular target: Serine/threonine-protein kinase B-raf (Homo sapiens) (UniProt P15056); conditions: Compound concentration 1000.0 nM
[11] = molecular target: Sigma intracellular receptor 2 (Homo sapiens) (UniProt Q5BJF2); conditions: Compound concentration 10.0 uM
Sigma intracellular receptor 2 (Homo sapiens), sequence (Q5BJF2 whole entry): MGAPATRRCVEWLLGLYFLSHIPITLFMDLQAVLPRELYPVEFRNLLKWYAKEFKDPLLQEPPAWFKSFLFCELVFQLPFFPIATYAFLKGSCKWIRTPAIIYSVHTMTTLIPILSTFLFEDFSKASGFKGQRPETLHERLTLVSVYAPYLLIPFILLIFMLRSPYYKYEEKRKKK

[12] = molecular target: Interleukin-1 receptor-associated kinase 1 (Homo sapiens) (UniProt P51617); conditions: Compound concentration 1000.0 nM
Interleukin-1 receptor-associated kinase 1 (Homo sapiens), sequence (P51617 whole entry, looked up): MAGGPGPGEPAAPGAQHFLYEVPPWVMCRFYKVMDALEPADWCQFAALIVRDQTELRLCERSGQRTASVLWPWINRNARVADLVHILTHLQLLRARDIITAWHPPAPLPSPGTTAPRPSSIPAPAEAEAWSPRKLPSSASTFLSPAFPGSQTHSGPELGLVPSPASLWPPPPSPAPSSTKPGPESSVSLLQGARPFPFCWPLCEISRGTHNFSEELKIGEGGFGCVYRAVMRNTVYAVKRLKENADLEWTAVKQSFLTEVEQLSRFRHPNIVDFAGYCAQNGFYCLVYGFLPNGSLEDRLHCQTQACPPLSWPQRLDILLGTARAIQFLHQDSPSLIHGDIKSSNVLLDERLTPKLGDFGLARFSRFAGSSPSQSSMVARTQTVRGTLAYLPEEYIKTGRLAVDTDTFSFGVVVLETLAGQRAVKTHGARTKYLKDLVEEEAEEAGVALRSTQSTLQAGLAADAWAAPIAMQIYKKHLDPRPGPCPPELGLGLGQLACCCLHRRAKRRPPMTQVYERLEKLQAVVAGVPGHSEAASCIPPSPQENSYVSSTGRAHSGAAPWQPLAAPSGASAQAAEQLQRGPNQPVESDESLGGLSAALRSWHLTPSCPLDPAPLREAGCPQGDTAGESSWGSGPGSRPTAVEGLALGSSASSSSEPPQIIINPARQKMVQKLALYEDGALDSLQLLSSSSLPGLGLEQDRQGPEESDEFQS

[13] = tested on: Proto-oncogene tyrosine-protein kinase receptor Ret (Homo sapiens), P07949 [V804L]; conditions: Compound concentration 1000.0 nM
Proto-oncogene tyrosine-protein kinase receptor Ret (Homo sapiens), P07949 [V804L], sequence (P07949 whole entry V804L): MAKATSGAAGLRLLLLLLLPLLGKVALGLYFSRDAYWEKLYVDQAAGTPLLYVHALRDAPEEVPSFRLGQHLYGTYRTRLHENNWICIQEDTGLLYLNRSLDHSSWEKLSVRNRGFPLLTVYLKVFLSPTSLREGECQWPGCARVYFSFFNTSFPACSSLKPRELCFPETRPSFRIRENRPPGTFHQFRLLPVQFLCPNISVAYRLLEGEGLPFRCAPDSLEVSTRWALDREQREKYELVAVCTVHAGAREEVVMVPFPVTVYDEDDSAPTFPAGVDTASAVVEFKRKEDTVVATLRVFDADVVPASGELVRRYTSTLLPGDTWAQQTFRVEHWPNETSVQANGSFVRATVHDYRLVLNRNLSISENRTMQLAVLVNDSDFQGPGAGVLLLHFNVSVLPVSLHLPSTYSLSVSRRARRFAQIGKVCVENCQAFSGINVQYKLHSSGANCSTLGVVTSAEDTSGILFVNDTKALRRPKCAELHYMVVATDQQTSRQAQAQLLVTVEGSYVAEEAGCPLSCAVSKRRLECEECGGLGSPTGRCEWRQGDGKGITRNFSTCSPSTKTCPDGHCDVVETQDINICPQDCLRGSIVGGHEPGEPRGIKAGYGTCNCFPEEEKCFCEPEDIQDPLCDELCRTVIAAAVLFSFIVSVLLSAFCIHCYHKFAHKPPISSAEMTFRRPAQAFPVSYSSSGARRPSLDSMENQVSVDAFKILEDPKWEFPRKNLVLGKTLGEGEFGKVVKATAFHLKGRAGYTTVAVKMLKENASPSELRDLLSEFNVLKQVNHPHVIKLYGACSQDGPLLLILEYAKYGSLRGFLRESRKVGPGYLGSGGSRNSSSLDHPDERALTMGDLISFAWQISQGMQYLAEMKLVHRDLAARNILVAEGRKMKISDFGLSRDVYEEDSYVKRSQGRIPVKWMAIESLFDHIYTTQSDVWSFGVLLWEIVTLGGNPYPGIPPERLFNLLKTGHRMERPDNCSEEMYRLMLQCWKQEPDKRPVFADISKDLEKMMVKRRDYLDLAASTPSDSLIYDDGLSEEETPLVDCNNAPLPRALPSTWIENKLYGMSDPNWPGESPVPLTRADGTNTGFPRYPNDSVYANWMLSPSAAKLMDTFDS

[14] = molecular target: MAP kinase-activated protein kinase 2 (Homo sapiens) (UniProt P49137); conditions: Compound concentration 1000.0 nM
MAP kinase-activated protein kinase 2 (Homo sapiens), sequence (P49137 whole entry, looked up): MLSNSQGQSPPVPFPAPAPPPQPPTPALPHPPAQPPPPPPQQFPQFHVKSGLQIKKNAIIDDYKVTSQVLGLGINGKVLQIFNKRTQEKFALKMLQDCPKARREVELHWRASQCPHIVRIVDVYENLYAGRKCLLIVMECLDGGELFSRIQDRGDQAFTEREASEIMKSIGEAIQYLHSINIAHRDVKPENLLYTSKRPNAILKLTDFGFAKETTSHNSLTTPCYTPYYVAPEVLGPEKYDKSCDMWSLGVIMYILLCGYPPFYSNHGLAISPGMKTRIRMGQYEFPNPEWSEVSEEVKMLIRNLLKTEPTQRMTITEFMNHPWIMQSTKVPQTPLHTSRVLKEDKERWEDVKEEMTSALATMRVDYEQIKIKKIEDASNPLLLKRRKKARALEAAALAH

[15] = molecular target: Serine/threonine-protein kinase 38-like (Homo sapiens) (UniProt Q9Y2H1); conditions: Compound concentration 1000.0 nM
[16] = molecular target: Death-associated protein kinase 2 (Homo sapiens) (UniProt Q9UIK4); conditions: Compound concentration 1000.0 nM
[17] = molecular target: Serine/threonine-protein kinase RIO3 (Homo sapiens) (UniProt O14730); conditions: Compound concentration 1000.0 nM
Serine/threonine-protein kinase RIO3 (Homo sapiens), sequence (O14730 whole entry): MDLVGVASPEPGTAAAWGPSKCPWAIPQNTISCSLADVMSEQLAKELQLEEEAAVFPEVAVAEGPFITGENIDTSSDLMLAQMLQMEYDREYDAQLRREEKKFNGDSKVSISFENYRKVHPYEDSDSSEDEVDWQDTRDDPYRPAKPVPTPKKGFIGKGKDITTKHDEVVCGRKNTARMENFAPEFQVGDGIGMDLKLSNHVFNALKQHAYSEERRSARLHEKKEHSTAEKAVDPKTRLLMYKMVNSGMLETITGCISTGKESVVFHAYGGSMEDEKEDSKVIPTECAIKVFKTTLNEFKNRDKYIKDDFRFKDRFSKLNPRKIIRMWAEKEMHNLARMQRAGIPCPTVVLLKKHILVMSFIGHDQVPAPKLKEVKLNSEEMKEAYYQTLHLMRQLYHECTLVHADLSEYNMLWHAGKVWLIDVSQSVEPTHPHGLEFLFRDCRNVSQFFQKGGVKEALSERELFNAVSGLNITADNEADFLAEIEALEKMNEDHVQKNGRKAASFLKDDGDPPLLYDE

[18] = molecular target: Cytoplasmic tyrosine-protein kinase BMX (Homo sapiens) (UniProt P51813); conditions: Compound concentration 1000.0 nM
[19] = molecular target: Myosin-IIIa (Homo sapiens) (UniProt Q8NEV4); conditions: Compound concentration 1000.0 nM
[20] = molecular target: Dual specificity testis-specific protein kinase 1 (Homo sapiens) (UniProt Q15569); conditions: Compound concentration 1000.0 nM
[21] = molecular target: Ephrin type-A receptor 2 (Homo sapiens) (UniProt P29317); conditions: Compound concentration 1000.0 nM
[22] = molecular target: T1, Muscarinic acetylcholine receptor M2 (Homo sapiens) (UniProt P08172); conditions: Compound concentration 10.0 uM
T1 sequence (whole entry): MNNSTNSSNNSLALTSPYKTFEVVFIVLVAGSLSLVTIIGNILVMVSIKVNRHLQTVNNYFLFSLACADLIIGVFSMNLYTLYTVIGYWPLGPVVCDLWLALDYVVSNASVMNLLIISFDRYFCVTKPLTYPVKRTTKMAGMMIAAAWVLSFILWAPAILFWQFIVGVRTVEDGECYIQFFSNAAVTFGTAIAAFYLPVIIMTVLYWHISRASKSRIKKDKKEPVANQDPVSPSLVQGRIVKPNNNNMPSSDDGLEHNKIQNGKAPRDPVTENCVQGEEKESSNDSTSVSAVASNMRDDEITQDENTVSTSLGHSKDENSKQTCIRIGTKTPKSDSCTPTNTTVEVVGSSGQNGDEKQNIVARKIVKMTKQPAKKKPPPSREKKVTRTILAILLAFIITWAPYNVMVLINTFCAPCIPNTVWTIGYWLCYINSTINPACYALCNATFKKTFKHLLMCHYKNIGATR

[23] = molecular target: Mitogen-activated protein kinase kinase kinase 9 (Homo sapiens) (UniProt P80192); conditions: Compound concentration 1000.0 nM
[24] = molecular target: Activin receptor type-1 (Homo sapiens) (UniProt Q04771); conditions: Compound concentration 1000.0 nM
[25] = tested on: Leucine-rich repeat serine/threonine-protein kinase 2 (Homo sapiens), Q5S007 [G2019S]; conditions: Compound concentration 1000.0 nM
[26] = tested on: Epidermal growth factor receptor (Homo sapiens), P00533 [UNDEFINED MUTATION]; conditions: Compound concentration 1000.0 nM
Epidermal growth factor receptor (Homo sapiens), P00533 [UNDEFINED MUTATION], sequence (P00533 whole entry, looked up, change not shown): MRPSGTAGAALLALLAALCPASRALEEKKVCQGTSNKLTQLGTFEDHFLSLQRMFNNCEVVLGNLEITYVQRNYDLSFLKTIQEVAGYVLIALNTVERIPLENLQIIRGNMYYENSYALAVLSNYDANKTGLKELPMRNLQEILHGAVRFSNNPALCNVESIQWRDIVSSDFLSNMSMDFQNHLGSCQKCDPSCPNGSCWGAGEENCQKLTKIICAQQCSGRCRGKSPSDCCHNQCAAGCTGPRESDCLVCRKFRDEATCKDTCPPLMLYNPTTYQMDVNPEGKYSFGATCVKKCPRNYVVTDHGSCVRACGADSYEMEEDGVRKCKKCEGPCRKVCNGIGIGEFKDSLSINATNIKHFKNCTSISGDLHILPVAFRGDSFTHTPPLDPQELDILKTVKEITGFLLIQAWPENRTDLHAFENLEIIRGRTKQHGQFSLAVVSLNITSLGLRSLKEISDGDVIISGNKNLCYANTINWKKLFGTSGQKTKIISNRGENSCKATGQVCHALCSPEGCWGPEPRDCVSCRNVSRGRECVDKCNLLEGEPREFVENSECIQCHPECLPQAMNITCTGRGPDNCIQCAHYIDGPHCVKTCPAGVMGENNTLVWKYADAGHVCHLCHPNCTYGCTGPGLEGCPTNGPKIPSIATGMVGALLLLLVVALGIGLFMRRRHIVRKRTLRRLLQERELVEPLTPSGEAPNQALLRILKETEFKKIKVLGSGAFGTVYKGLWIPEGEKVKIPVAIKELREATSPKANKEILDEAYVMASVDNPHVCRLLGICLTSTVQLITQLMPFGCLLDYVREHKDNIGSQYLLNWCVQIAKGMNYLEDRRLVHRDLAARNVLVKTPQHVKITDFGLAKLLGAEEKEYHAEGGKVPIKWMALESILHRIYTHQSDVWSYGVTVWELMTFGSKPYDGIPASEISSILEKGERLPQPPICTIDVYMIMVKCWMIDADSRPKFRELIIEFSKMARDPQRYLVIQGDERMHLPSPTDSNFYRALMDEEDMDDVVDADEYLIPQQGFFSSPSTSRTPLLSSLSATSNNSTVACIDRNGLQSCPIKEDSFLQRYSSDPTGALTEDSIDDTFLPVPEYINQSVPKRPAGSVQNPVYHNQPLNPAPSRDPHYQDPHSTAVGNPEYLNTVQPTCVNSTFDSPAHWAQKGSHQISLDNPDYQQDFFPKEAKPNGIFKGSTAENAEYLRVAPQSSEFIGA

[27] = tested on: Epidermal growth factor receptor (Homo sapiens), P00533 [UNDEFINED MUTATION]; conditions: Compound concentration 1000.0 nM; remark: listed apart in the source
[28] = molecular target: Mitogen-activated protein kinase 9 (Homo sapiens) (UniProt P45984); conditions: Compound concentration 1000.0 nM
[29] = molecular target: Calcium/calmodulin-dependent protein kinase type 1 (Homo sapiens) (UniProt Q14012); conditions: Compound concentration 1000.0 nM
[30] = molecular target: Rhodopsin kinase GRK1 (Homo sapiens) (UniProt Q15835); conditions: Compound concentration 1000.0 nM
[31] = molecular target: Tyrosine-protein kinase JAK1 (Homo sapiens) (UniProt P23458); conditions: Compound concentration 1000.0 nM
[32] = molecular target: Casein kinase I isoform delta (Homo sapiens) (UniProt P48730); conditions: Compound concentration 1000.0 nM
Casein kinase I isoform delta (Homo sapiens), sequence (P48730 whole entry, looked up, canonical isoform): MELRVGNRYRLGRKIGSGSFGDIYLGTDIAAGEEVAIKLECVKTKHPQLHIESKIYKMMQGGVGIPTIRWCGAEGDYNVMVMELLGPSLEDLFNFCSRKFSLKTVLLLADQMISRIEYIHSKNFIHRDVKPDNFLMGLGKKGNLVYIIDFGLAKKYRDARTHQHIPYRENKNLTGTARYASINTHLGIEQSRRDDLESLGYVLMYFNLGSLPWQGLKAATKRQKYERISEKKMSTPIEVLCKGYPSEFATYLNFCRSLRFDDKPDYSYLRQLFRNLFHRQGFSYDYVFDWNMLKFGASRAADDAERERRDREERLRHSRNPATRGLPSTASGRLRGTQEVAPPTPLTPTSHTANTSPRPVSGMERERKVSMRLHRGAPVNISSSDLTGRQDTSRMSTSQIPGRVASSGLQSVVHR

[33] = molecular target: Serine/threonine-protein kinase SIK1 (Homo sapiens) (UniProt P57059); conditions: Compound concentration 1000.0 nM
[34] = molecular target: Transient receptor potential cation channel subfamily M member 6 (Homo sapiens) (UniProt Q9BX84); conditions: Compound concentration 1000.0 nM
[35] = molecular target: Rho-associated protein kinase 2 (Homo sapiens) (UniProt O75116); conditions: Compound concentration 1000.0 nM
[36] = molecular target: Ephrin type-A receptor 6 (Homo sapiens) (UniProt Q9UF33); conditions: Compound concentration 1000.0 nM
[37] = molecular target: Serine/threonine-protein kinase 16 (Homo sapiens) (UniProt O75716); conditions: Compound concentration 1000.0 nM
Serine/threonine-protein kinase 16 (Homo sapiens), sequence (O75716 whole entry): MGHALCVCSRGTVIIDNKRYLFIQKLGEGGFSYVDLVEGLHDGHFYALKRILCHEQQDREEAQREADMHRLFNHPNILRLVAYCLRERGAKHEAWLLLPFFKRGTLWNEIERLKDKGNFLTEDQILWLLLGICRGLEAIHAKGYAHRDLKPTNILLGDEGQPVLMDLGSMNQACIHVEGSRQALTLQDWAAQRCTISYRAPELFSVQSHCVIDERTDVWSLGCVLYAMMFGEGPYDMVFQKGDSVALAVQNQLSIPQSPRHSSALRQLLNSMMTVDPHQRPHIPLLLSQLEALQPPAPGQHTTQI

[38] = molecular target: Protein kinase C theta type (Homo sapiens) (UniProt Q04759); conditions: Compound concentration 1000.0 nM

CC(C)(O)c1cncc(-c2nc3ccc(F)cc3n2C2CC2)c1 [MSD-CYP11B2]
inactive: residual activity [1] 100% | residual activity [2] 100% | residual activity [3] 100% | residual activity [4] 100% | residual activity [5] 100% | residual activity [6] 81% | residual activity [7] 100% | residual activity [8] 100% | residual activity [9] 90% | residual activity [10] 100% | inhibition [11] 22.7% | residual activity [12] 100% | residual activity [13] 100% | residual activity [14] 100% | residual activity [15] 100% | residual activity [16] 100% | residual activity [17] 100% | residual activity [18] 100% | residual activity [19] 100% | residual activity [20] 100% | residual activity [21] 100% | inhibition [22] -0.1% | residual activity [23] 100% | residual activity [24] 100% | residual activity [25] 100% | residual activity [26] 100% | residual activity [27] 100% | residual activity [28] 100% | residual activity [29] 100% | residual activity [30] 100% | residual activity [31] 100% | residual activity [32] 100% | residual activity [33] 100% | residual activity [34] 100% | residual activity [35] 92% | residual activity [36] 100% | residual activity [37] 100% | residual activity [38] 100%

FC(F)(F)c1ccc2c(c1)nc(-c1cccnc1)n2C1CC1 [MSD-CYP11B2-Negative-control]
inactive: residual activity [1] 100% | residual activity [2] 100% | residual activity [3] 100% | residual activity [4] 100% | residual activity [5] 91% | residual activity [6] 97% | residual activity [7] 100% | residual activity [8] 100% | residual activity [9] 78% | residual activity [10] 100% | inhibition [11] 26.5% | residual activity [12] 100% | residual activity [13] 81% | residual activity [14] 100% | residual activity [15] 100% | residual activity [16] 100% | residual activity [17] 93% | residual activity [18] 100% | residual activity [19] 100% | residual activity [20] 100% | residual activity [21] 100% | inhibition [22] 2.99% | residual activity [23] 100% | residual activity [24] 100% | residual activity [25] 100% | residual activity [26] 100% | residual activity [27] 100% | residual activity [28] 100% | residual activity [29] 100% | residual activity [30] 100% | residual activity [31] 100% | residual activity [32] 100% | residual activity [33] 100% | residual activity [34] 100% | residual activity [35] 100% | residual activity [36] 100% | residual activity [37] 100% | residual activity [38] 100%
